The record followed here is doi:10.1101/2025.05.09.652710v1 (bioRxiv, 2025).

One assay addresses hepsin (Homo sapiens, UniProt P05981). Nature of the assay: Fluorogenic kinetic enzyme inhibitor assay, hepsin. Type of assay: biochemical.
Assay [1] has as its system influenza A virus strain A/California/4/2009 (pdmH1N1). The conditions noted are these: for H1N1 titer Log fold reduction (1 μM): virus strain A/California/4/2009 (pdmH1N1, 72 h, 1 μM); for H1N1 titer Log fold reduction (10 μM): virus strain A/California/4/2009 (pdmH1N1, 72 h, 10 μM).
The target in the next assay is TMPRSS2 (Homo sapiens, UniProt O15393, Q253D/R252D/R255K/S251D/S254D). As to the kind of experiment: Fluorogenic kinetic enzyme inhibitor assay, TMPRSS2. The format is biochemical.
TMPRSS2, sequence (O15393 109-492 S251D/R252D/Q253D/S254D/R255K limits assumed): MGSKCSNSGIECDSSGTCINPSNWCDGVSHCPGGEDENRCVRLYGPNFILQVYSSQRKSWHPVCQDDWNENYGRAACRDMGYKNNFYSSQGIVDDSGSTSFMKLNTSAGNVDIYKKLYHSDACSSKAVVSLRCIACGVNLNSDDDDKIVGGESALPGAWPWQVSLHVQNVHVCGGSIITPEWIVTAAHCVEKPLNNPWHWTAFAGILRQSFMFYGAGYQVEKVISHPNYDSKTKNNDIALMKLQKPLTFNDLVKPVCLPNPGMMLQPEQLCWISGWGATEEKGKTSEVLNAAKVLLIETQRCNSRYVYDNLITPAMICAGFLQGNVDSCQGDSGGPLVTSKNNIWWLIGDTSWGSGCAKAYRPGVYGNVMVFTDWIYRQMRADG
Assay [2] has as its system chimeric VSV SARS-CoV-2 virus. The following applies: chimeric VSV virus.
A further assay addresses T1, matriptase (Homo sapiens, UniProt Q9Y5Y6).
T1 sequence (Q9Y5Y6 615-855): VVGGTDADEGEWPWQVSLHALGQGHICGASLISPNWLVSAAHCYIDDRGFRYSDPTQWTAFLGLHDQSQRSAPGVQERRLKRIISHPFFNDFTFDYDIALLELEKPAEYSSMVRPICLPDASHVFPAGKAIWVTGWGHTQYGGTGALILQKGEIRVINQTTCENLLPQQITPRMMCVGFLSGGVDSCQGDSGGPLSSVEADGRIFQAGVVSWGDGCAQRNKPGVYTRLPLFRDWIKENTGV
Nature of the assay: Fluorogenic kinetic enzyme inhibitor assay, matriptase. The format is biochemical.

The next assay deals with thrombin (Homo sapiens, UniProt P00734). As to the kind of experiment: Chromogenic kinetic enzyme assay, thrombin. Type of assay: biochemical.
The target in a further assay is T2, HGFA (Homo sapiens, UniProt Q04756).
T2 sequence (Q04756 373-655): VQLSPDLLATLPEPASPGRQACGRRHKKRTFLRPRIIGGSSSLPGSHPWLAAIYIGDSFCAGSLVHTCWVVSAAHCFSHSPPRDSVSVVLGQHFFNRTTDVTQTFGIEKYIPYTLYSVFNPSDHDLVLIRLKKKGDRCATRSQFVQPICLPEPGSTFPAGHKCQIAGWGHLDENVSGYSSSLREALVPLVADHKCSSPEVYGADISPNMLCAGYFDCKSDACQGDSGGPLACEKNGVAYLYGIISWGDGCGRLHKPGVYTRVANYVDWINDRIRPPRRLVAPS
Nature of the assay: Fluorogenic kinetic enzyme inhibitor assay, HGFA. The format is biochemical.

The target in the next assay is Factor Xa (Homo sapiens, UniProt P00742). As to the kind of experiment: Chromogenic kinetic enzyme assay, Factor Xa. The format is biochemical.
Factor Xa, sequence (P00742 235-488 limits assumed): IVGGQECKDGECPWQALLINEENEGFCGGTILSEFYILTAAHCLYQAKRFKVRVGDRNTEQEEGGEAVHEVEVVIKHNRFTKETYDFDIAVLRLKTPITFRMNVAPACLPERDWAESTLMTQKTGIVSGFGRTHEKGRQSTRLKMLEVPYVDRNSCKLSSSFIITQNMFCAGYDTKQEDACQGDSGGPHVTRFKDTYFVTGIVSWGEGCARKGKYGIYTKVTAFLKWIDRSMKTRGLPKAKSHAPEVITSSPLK
Factor Xa, sequence (P00742 41-179 partner limits assumed): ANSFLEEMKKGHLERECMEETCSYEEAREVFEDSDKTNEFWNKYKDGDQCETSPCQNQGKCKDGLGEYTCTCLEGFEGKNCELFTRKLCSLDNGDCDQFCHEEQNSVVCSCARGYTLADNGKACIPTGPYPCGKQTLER

hepsin, sequence (P05981 163-417 limits assumed): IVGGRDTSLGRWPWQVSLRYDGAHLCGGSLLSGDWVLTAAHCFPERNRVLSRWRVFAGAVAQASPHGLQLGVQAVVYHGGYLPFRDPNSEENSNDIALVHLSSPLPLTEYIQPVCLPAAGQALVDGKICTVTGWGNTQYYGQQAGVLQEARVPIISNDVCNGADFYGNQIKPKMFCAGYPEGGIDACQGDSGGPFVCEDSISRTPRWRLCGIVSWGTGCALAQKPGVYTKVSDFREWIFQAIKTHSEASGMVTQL
hepsin, sequence (P05981 45-162 partner limits assumed): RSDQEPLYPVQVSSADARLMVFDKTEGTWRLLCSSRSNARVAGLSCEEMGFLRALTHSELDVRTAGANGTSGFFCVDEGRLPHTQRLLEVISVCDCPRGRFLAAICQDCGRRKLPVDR

In the case of `CC[C@H](C)[C@H](NC(C)=O)C(=O)N[C@H](Cc1c[nH]c2ccccc12)C(=O)N[C@@H](Cc1ccccc1)C(=O)N[C@@H](CCCNC(=N)N)C(=O)c1nc2ccccc2s1` [MM4038, Ac-IdWFR-kbt], the IC50 (as a rule, the midpoint of a concentration-inhibition curve) is 12 nM against hepsin; 0.04 nM on TMPRSS2; 25 nM at matriptase; greater than 20000 nM against thrombin; 66 nM at HGFA. Moreover, the “H1N1 titer Log fold reduction (1 μM)” value in assay [1] is recorded as 2.1. Moreover, in assay [1], the “H1N1 titer Log fold reduction (10 μM)” value turned out to be 3.0. Also, in assay [2], the EC50 (usually the concentration at which the effect is half-maximal) was 226 nM.
As for `CC[C@H](C)[C@H](NC(C)=O)C(=O)N[C@@H](CCC(N)=O)C(=O)N[C@@H](Cc1c[nH]c2ccccc12)C(=O)N[C@@H](CCCNC(=N)N)C(=O)c1nc2ccccc2s1` [MM3187, Ac-IQWR-kbt], the IC50 against hepsin was 0.32 nM; on TMPRSS2, 2.2 nM; against Factor Xa, 129 nM; at matriptase it was 1.2 nM; against thrombin, greater than 20000 nM; against HGFA it was 1450 nM. The molecule further had an EC50 in assay [2] of 22 nM.
As for `CC[C@H](C)[C@H](NC(C)=O)C(=O)N[C@H](C(=O)N[C@@H](Cc1ccccc1)C(=O)N[C@@H](CCCNC(=N)N)C(=O)c1nc2ccccc2s1)[C@@H](C)O` [MM4028, Ac-ITFR-kbt], the half-maximal inhibitory concentration (IC50) on hepsin is 0.86 nM; against TMPRSS2, 0.06 nM; at matriptase, 4.7 nM; at thrombin it was greater than 20000 nM; at HGFA, 182 nM. For the same molecule, the EC50 in assay [2] is 103 nM.
Turning to `CC[C@H](C)[C@H](NC(C)=O)C(=O)N[C@@H](CCC(N)=O)C(=O)N[C@@H](Cc1ccccc1)C(=O)N[C@@H](CCCNC(=N)N)C(=O)c1nc2ccccc2s1` [MM3116, Ac-IQFR-kbt], the IC50 against hepsin is 0.14 nM; on TMPRSS2, 1.7 nM; against Factor Xa, 792 nM; against matriptase, 0.92 nM; at thrombin, greater than 20000 nM; at HGFA, 30 nM. In assay [2], the EC50 worked out at 3.6 nM.
On to `CC[C@H](C)[C@H](NC(C)=O)C(=O)N[C@@H](CO)C(=O)N[C@@H](Cc1ccccc1)C(=O)N[C@@H](CCCNC(=N)N)C(=O)c1nc2ccccc2s1` [MM4009, Ac-ISFR-kbt], for which the IC50 is 0.86 nM against hepsin; 0.07 nM on TMPRSS2; 4.7 nM against matriptase; greater than 20000 nM on thrombin; 182 nM against HGFA. The “H1N1 Fold inhibition @ 0.1 μM” value in assay [1] came out at 2. Besides, in assay [1], the “H1N1 Fold inhibition @ 1 μM” value is recorded as 3. Further, the “H1N1 Fold inhibition @ 10 μM” value in assay [1] is listed as 743. In addition, the “H1N1 titer Log fold reduction (1 μM)” value in assay [1] worked out at 0.62. Besides, in assay [1], the “H1N1 titer Log fold reduction (10 μM)” value is recorded as 3.4. Further, the EC50 in assay [2] is 40 nM.
For `CC[C@H](C)[C@H](NC(C)=O)C(=O)N[C@@H](CCC(N)=O)C(=O)N[C@H](C(=O)N[C@@H](CCCNC(=N)N)C(=O)c1nc2ccccc2s1)[C@@H](C)O` [MM3186, Ac-IQTR-kbt], the IC50 against hepsin was 0.98 nM; against TMPRSS2 it was 0.17 nM; against Factor Xa, greater than 20000 nM; on matriptase it was 16 nM; at thrombin, greater than 20000 nM; on HGFA, 18400 nM. For the same molecule, the midpoint of the response in assay [2], the EC50, lay at 19 nM.
As to `CC[C@H](C)[C@H](NC(C)=O)C(=O)N[C@@H](CCC(N)=O)C(=O)N[C@H](C(=O)N[C@H](CCCNC(=N)N)C(=O)c1nc2ccccc2s1)C(C)C` [MM3180-1, Ac-IQVdR-kbt], the IC50 on hepsin was 1.72 nM; against TMPRSS2 it was 2.89 nM; against Factor Xa it was greater than 20000 nM; at matriptase, 22.9 nM; at thrombin, greater than 20000 nM; against HGFA, 14600 nM.
`CC[C@H](C)[C@H](NC(C)=O)C(=O)N[C@@H](CCC(N)=O)C(=O)N[C@@H](C)C(=O)N[C@@H](CCCNC(=N)N)C(=O)c1nc2ccccc2s1` [MM3178, Ac-IQAR-kbt]: the IC50 at hepsin is 1.3 nM; on TMPRSS2, 0.23 nM; against Factor Xa, 170 nM; against matriptase, 0.1 nM; against thrombin, greater than 20000 nM; at HGFA it was greater than 20000 nM. Also, in assay [1], the “H1N1 Fold inhibition @ 0.1 μM” value is reported as 2. Besides, the “H1N1 Fold inhibition @ 1 μM” value in assay [1] was found to be 91. The “H1N1 Fold inhibition @ 10 μM” value in assay [1] was found to be 238. Besides, the “H1N1 titer Log fold reduction (1 μM)” value in assay [1] turned out to be 2.0. Moreover, the “H1N1 titer Log fold reduction (10 μM)” value in assay [1] is listed as 2.4. In assay [2], this molecule had an EC50 of 11 nM.
`CC[C@H](C)[C@H](NC(C)=O)C(=O)N[C@@H](CCC(N)=O)C(=O)N[C@@H](CO)C(=O)N[C@@H](CCCNC(=N)N)C(=O)c1nc2ccccc2s1` [MM3177, Ac-IQSR-kbt]: the IC50 is 2.4 nM against hepsin; 4.5 nM on TMPRSS2; 1730 nM against Factor Xa; 1.3 nM against matriptase; greater than 20000 nM on thrombin; 19900 nM against HGFA. In assay [2], this molecule had an EC50 of 36 nM.
`CC[C@H](C)[C@H](NC(C)=O)C(=O)N[C@@H](CCC(N)=O)C(=O)N[C@H](C(=O)N[C@@H](CCCNC(=N)N)C(=O)c1nc2ccccc2s1)C(C)C` [MM3180, Ac-IQVR-kbt]: the IC50 at hepsin worked out at 0.11 nM. Also, in assay [1], the “H1N1 Fold inhibition @ 0.1 μM” value is 2, the “H1N1 Fold inhibition @ 1 μM” value is listed as 135, the “H1N1 Fold inhibition @ 10 μM” value turned out to be 359 and the “H1N1 titer Log fold reduction (1 μM)” value was found to be 2.1. Further, the “H1N1 titer Log fold reduction (10 μM)” value in assay [1] was determined as 2.6. The same molecule had an IC50 against TMPRSS2 of 0.03 nM. Besides, the EC50 in assay [2] came to 12 nM. The molecule further came in with an IC50 against matriptase of 0.76 nM. The same molecule gave an IC50 at thrombin greater than 20000 nM. On HGFA, this molecule returned a concentration for half-maximal inhibition (IC50) of 799 nM.
